Source: ChEMBL document CHEMBL1201862, “PubChem BioAssay data set” (2004)
Activity calls are given as the source filed them.

Experiments:
[1] = toxicity toward HepG2 hepatoma cells – cell-based, dry powder samples, cytotoxicity control, dose response (AID 720568); type: functional
[2] = target: Paired box protein Pax-8 (Homo sapiens, UniProt Q06710); experiment: PAX8 transcriptional activity inhibition in RMG-I – RMG-I cells, luciferase, cherry-pick, dose response (AID 687027); type: functional, cell-based;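 note: luciferase reporter driven by Pax8 target thyroperoxidase promoter measured by SteadyGlo luminescence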
Sequence of Paired box protein Pax-8 (Q06710 whole entry): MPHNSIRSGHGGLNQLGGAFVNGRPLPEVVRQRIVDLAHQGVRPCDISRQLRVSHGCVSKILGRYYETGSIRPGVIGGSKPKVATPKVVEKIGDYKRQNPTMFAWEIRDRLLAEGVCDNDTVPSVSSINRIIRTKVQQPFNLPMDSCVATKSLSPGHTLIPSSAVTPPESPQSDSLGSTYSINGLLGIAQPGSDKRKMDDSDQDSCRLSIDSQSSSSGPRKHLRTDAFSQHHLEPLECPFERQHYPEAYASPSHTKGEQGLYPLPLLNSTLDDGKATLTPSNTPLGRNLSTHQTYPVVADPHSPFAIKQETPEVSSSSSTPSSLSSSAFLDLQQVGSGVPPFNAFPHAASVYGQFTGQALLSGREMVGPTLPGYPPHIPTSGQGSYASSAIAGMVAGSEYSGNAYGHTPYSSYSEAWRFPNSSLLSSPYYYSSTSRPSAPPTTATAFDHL

[3] = target: T1, Microphthalmia-associated transcription factor (Homo sapiens, UniProt O75030); experiment: reducers of TRPM1 reporter luminescence, concentration series – cell-based, SK-MEL-5, cherry-picked, set 3, MITF inhibitor project, dose response (AID 493073); type: functional;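 note: SK-MEL-5 melanoma cells with luciferase driven by the MITF target TRPM1 promoter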
T1 sequence (O75030 whole entry): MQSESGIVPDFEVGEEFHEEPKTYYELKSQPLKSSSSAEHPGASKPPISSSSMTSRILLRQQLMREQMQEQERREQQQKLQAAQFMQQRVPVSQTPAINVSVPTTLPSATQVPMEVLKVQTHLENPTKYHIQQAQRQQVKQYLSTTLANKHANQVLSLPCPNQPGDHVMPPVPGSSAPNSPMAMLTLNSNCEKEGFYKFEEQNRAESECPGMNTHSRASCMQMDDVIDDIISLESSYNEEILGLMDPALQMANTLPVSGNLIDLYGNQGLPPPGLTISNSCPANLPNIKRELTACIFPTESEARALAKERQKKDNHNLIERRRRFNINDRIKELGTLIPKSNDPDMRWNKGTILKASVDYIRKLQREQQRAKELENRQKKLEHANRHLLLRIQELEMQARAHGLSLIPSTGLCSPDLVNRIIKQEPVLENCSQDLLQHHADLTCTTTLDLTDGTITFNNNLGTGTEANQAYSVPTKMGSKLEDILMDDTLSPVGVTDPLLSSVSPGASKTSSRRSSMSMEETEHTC

[4] = HIV-1 AD8 envelope cell-cell fusion blockers – cherry-pick, dose response (AID 652062); type: functional, cell-based;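 note: luciferase signal from cell-cell fusion driven by HIV-1 clade B AD8 Env; potency is for inhibitors of fusion seen as a drop in luminescence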
[5] = general cell-killing toxicity readout – plate reader, dry powder samples, cytotoxicity control for PAX8 inhibitor project, dose response (AID 743021); type: functional, cell-based
[6] = viability loss in HEK293T cells – cell-based, cherry-picks, cytotoxicity control for HIV Vif inhibitor project, dose response (AID 652208); type: functional
[7] = off-target signal loss in HeLa-CEM21 co-culture – HeLa F-luc CTL cells, cherry-picked, counter-screen for HIV-1 Env fusion inhibitor project, dose response (AID 652040); type: functional, cell-based;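 note: potency for signal decrease marking cytotoxic or nonspecific inhibition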
[8] = viability loss in CEM21 cells – cell-based, CellTiter-Glo luminescence, cherry-picked, cytotoxicity control for viral fusion inhibitor project, dose response (AID 652042); type: functional;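 note: potency for signal decrease meaning cytotoxicity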
[9] = blockers of HIV-1 ZM109 envelope-driven cell-cell fusion – HeLa effector, CEM target cells, luciferase, cherry-pick, dose response (AID 652058); type: functional, cell-based;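 note: luciferase signal from HIV-1 Env mediated cell-cell fusion of effector and target cells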
[10] = blockers of HIV-1 envelope-mediated cell-cell fusion – cherry-pick, dose response (AID 652057); type: functional, cell-based
[11] = A Cell-Based Confirmatory Screen for Compounds that Inhibit VEEV TC-83 (4).; type: functional
[12] = A Cell-Based Confirmatory Screen for Compounds that Inhibit VEEV, TC-83 (5).; type: functional
[13] = target: Disintegrin and metalloproteinase domain-containing protein 17 (Homo sapiens, UniProt P78536); experiment: inhibition of ADAM17 substrate cleavage – biochemical, quenched FRET substrate, counter-screen for ADAM10 exosite inhibitor project, dose response (AID 743253)
Sequence of Disintegrin and metalloproteinase domain-containing protein 17 (P78536 whole entry, the tested form may be a part): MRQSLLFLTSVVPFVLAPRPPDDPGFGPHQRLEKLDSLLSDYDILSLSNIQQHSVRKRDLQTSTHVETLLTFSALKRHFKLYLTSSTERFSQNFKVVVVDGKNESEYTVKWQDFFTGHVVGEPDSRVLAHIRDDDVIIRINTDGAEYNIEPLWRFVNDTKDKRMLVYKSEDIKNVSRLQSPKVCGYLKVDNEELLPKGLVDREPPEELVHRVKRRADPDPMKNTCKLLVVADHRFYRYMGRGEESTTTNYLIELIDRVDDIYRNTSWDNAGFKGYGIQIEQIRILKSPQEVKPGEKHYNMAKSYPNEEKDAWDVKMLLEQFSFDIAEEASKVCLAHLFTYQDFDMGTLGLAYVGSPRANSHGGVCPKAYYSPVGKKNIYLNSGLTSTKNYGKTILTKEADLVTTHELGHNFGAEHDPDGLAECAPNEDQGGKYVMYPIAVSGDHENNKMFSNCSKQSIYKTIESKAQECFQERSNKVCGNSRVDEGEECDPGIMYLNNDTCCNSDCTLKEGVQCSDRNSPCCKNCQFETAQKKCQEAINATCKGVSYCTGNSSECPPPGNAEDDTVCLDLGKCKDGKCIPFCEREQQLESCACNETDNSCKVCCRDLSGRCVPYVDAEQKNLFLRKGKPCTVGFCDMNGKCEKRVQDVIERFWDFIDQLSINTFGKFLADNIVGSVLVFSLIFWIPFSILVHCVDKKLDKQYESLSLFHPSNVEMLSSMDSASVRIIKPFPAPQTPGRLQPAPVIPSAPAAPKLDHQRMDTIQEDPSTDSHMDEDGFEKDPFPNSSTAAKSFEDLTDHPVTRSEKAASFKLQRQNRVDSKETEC

[14] = Luminescence Cell-Based Dose Retest to Confirm Inhibitors of Cancer Stem Cells. [Related pubchem assays (depositor defined):AID2717, AID2721]; type: functional; conditions: Homo sapiens
[15] = potency of ADAM10 substrate cleavage blockers – biochemical, QFRET, dose response (AID 743254);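 note: ADAM10 enzyme with the DM2 quenched FRET peptide as substrate; EDANS fluorescence gain as the protease cuts the substrate; inhibitor potency against ADAM10 proteolytic activity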
[16] = target: Protein disulfide-isomerase (Homo sapiens, UniProt P07237); experiment: inhibition of PDI-mediated insulin reduction – biochemical, turbidity, dry powder samples, set 2, confirmation (AID 652146)
Sequence of Protein disulfide-isomerase (P07237 whole entry, the tested form may be a part): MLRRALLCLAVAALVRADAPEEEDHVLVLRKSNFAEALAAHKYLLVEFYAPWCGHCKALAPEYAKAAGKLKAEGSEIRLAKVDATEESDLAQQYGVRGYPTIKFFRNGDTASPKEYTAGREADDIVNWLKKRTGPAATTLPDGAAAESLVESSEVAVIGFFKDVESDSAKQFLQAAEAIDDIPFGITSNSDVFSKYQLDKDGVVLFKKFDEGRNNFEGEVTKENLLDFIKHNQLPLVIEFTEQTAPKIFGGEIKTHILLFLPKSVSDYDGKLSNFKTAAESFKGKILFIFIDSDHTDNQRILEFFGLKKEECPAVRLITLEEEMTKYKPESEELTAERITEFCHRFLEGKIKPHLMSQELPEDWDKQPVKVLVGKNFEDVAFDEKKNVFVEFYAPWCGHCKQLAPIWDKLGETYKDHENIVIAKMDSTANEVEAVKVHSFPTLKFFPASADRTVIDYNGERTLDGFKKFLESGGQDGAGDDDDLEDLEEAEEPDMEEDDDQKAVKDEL

[17] = luciferase signal loss, tTA control fusion, HeLa F-luc tTA cells, dry powder, counter-screen for HIV Env fusion inhibitor project, dose response (AID 687021); type: functional, cell-based
[18] = optical artefact potency, substrate without enzyme – biochemical, fluorescence intensity, triplicate, artefact control for kallikrein-7 zymogen activator project, dose response (AID 720493)
[19] = target: Kallikrein-7 (Homo sapiens, UniProt P49862); experiment: Fluorescence Intensity-based biochemical primary high throughput dose response assay to identify activators of kallikrein-7 (K7) zymogen.
Sequence of Kallikrein-7 (P49862 whole entry): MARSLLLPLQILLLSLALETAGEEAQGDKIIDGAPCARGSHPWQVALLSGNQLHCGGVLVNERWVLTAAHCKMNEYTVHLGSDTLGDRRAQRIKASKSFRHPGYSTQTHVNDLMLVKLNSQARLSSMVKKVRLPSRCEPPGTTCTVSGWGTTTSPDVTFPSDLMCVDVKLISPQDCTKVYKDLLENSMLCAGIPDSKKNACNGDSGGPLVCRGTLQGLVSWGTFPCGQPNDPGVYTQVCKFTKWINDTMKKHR

[20] = cells; conditions: A549
[21] = viability loss in HepG2 liver cells – cell-based, ATP luminescence, cherry-pick, set 6, cytotoxicity control, dose response (AID 1053125); type: functional

For `O=C1CCN(Cc2ccccc2)c2cc3ccccc3cc21`, the AC50 [1] was > 30 µM (inactive).

In the case of `OCC1OC(n2cnc3c(NCc4ccco4)ncnc32)C(O)C1O` (stereo unspecified), the AC50 [2] was 2.41 µM (active), the AC50 [3] was 3.88 µM (active) and the AC50 [4] was 6.9 µM (active). For the same compound, the AC50 [5] was 1.38 µM (active), the AC50 [6] was 13.8 µM (active) and the AC50 [7] was 36.8 µM (active). For the same compound, the AC50 [8] was 2.94 µM (active), the AC50 [9] was 6.03 µM (active) and the AC50 [10] was 7.32 µM (active).

For `CCN1CCN(Cc2nc3ccc([N+](=O)[O-])cc3c(=O)n2-c2cccc(F)c2)CC1`, the IC50 [11] was 0.31 µM (active) and the IC50 [12] was 0.45 µM (active).

With `Cc1cc(C)cc(NS(=O)(=O)c2ccc(Oc3ncc(C(F)(F)F)cc3Cl)cc2)c1` the IC50 [13] was > 69.5 µM (inactive), the AC50 [14] was 2.09 µM (active) and the IC50 [15] was 12 µM (inactive).

In the case of `C=CCOc1ccc(CN2CCC(CCOc3ccccc3)(C(=O)OCC)CC2)cc1Cl`, the AC50 [16] was > 30 µM (inactive).

For `CC1(C)CC(NC(=O)C(=O)Nc2ccc(Cl)cc2)CC(C)(C)N1`, the AC50 [17] was > 70 µM (inactive).

In the case of `CNc1cc(C)c(C#N)c2nc3ccccc3n12`, the EC50 [18] was > 2.58 µM (active) and the EC50 [19] was 3.77 µM (active).

In the case of `O=C(NNc1c2ccccc2nc2ccccc12)c1ccc(O)cc1`, the AC50 [20] was > 52 µM (inactive) and the AC50 [21] was > 52 µM (inactive).
